Patent US10258603B2 (priority 2014, dated 2019)

Columns and labels:
BRD4(BD1) = biological target: T1, BRD4(BD1) (Homo sapiens, UniProt O60885); assay: BRD4 AlphaLisa Binding Assay
T1 construct: 42-168 was cloned, expressed, and purified to; His; made in house
Source text: IC50 Measurements for Inhibitors Using BRD4 AlphaLisa Binding Assay

BRD9 = biological target: T2, BRD9 (Homo sapiens, UniProt Q9H8M2); assay: BRD9 AlphaLisa Binding Assay
T2 construct: 134-239 was cloned, expressed, and purified to homogeneity; Flag; made in house
T2 sequence (Q9H8M2 134-239 limits assumed): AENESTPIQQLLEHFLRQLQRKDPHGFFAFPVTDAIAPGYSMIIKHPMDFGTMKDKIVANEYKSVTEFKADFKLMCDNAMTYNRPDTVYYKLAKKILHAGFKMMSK
Protocol: IC50 Measurements for Inhibitors Using BRD9 AlphaLisa Binding Assay His/Flag epitope tagged BRD9134-239 was cloned, expressed, and purified to homogeneity. […] After 20 minutes incubation at room temperature AlphaLisa Streptavidin Acceptor Beads (Perkin-A[…]) and AlphaLisa Nickel donor beads (Perkin AS 10 ID) were added to a final concentration of 15 ug/mL each.

Q: Which IC50 (BRD4(BD1)) does the source give for Cn1cc(C(=O)NCCN2CCOCC2)c2cc[nH]c2c1=O [Example 8, 6-methyl-N-(2-morpholinoethyl)-7-oxo-1H-pyrrolo[2,3-c]pyridine-4-carboxamide] here?
A: Its IC50 is 4.9 µM.

Q: How did the IC50 (BRD4(BD1)) turn out when Cn1cc(C(=O)NCCCN2CCOCC2)c2cc[nH]c2c1=O [Example 31, 6-methyl-N-(3-morpholinopropyl)-7-oxo-1H-pyrrolo[2,3-c]pyridine-4-carboxamide] was run?
A: The IC50 was 17 µM.

Q: How did the IC50 (BRD4(BD1)) turn out when CN1CCN(CCNC(=O)c2cn(C)c(=O)c3[nH]ccc23)CC1 [Example 32, 6-methyl-N-[2-(4-methylpiperazin-1-yl)ethyl]-7-oxo-1H-pyrrolo[2,3-c]pyridine-4-carboxamide] was run?
A: Its IC50 is 9.8 µM.

Q: Cn1cc(C(=O)N2CCC(Cc3cccnc3)CC2)c2cc[nH]c2c1=O [Example 46, 6-methyl-4-[4-(3-pyridylmethyl)piperidine-1-carbonyl]-1H-pyrrolo[2,3-c]pyridin-7-one] was tested. Which IC50 (BRD4(BD1)) did it give?
A: Its IC50 is 6.4 µM.

Q: For Cn1cc(C(=O)N2CCC(n3cnc4ccccc43)CC2)c2cc[nH]c2c1=O [Example 50, 4-[4-(benzimidazol-1-yl)piperidine-1-carbonyl]-6-methyl-1H-pyrrolo[2,3-c]pyridin-7-one], which IC50 (BRD4(BD1)) is on record?
A: Its IC50 is 16 µM.

Q: For Cn1cc(C(=O)N2CCC(c3ccccn3)CC2)c2cc[nH]c2c1=O [Example 55, 6-methyl-4-[4-(2-pyridyl)piperidine-1-carbonyl]-1H-pyrrolo[2,3-c]pyridin-7-one], which IC50 (BRD4(BD1)) is on record?
A: The IC50 was 9.5 µM.

Q: How did the IC50 (BRD4(BD1)) turn out when Cn1cc(C(=O)N2CCC(C(F)(F)F)CC2)c2cc[nH]c2c1=O [Example 57, 6-methyl-4-[4-(trifluoromethyl)piperidine-1-carbonyl]-1H-pyrrolo[2,3-c]pyridin-7-one] was run?
A: The IC50 was 4.1 µM.

Q: Which IC50 (BRD4(BD1)) does the source give for Cn1cc(C(=O)N2CCC(C#N)CC2)c2cc[nH]c2c1=O [Example 64, 1-(6-methyl-7-oxo-1H-pyrrolo[2,3-c]pyridine-4-carbonyl)piperidine-4-carbonitrile] here?
A: The IC50 was 8 µM.

Q: Cn1cc(C(=O)NCc2ccc(S(C)(=O)=O)cc2)c2cc[nH]c2c1=O [Example 92] was tested. Which IC50 (BRD4(BD1)) did it give?
A: The IC50 was 8.4 µM.

Q: COC(=O)[C@@H](NC(=O)c1cn(C)c(=O)c2[nH]ccc12)C1CCCCC1 [Example 93] was tested. Which IC50 (BRD4(BD1)) did it give?
A: Its IC50 is 2.9 µM.

Q: C[C@@H](NC(=O)c1cn(C)c(=O)c2[nH]ccc12)C1CCCCC1 [Example 94] was tested. Which IC50 (BRD4(BD1)) did it give?
A: Its IC50 is 3.1 µM.

Q: COC[C@@H](NC(=O)c1cn(C)c(=O)c2[nH]ccc12)c1ccccc1 [Example 95] was tested. Which IC50 (BRD4(BD1)) did it give?
A: The IC50 was 11 µM.

Q: How did the IC50 (BRD4(BD1)) turn out when Cn1cc(C(=O)N[C@H](C(=O)O)c2ccccc2)c2cc[nH]c2c1=O [Example 96] was run?
A: Its IC50 is 5 µM.

Q: Cn1cc(C(=O)NCC2CCOCC2)c2cc[nH]c2c1=O [Example 101] was tested. Which IC50 (BRD4(BD1)) did it give?
A: Its IC50 is 17 µM.

Q: CC(NC(=O)c1cn(C)c(=O)c2[nH]ccc12)c1ccccc1F (centres unmarked) [Example 116] was tested. Which IC50 (BRD4(BD1)) did it give?
A: Its IC50 is 4.3 µM.

Q: With CCOC(C)CNC(=O)c1cn(C)c(=O)c2[nH]ccc12 (centres unmarked) [Example 117] as the molecule, how does the IC50 (BRD4(BD1)) read?
A: Its IC50 is 4 µM.

Q: Which IC50 (BRD4(BD1)) does the source give for COc1ccccc1C(C)NC(=O)c1cn(C)c(=O)c2[nH]ccc12 (centres unmarked) [Example 119] here?
A: The IC50 was 1.2 µM.

Q: How did the IC50 (BRD4(BD1)) turn out when CC(C)C(NC(=O)c1cn(C)c(=O)c2[nH]ccc12)c1ccccc1 (centres unmarked) [Example 123] was run?
A: The IC50 was 11 µM.

Q: CC(NC(=O)c1cn(C)c(=O)c2[nH]ccc12)c1ccc(Cl)cc1 (centres unmarked) [Example 126] was tested. Which IC50 (BRD4(BD1)) did it give?
A: The IC50 was 3.2 µM.

Q: How did the IC50 (BRD4(BD1)) turn out when Cc1ccccc1CCNC(=O)c1cn(C)c(=O)c2[nH]ccc12 [Example 127] was run?
A: Its IC50 is 1.2 µM.

Q: How did the IC50 (BRD4(BD1)) turn out when CC(c1ccccc1)N(C)C(=O)c1cn(C)c(=O)c2[nH]ccc12 (centres unmarked) [Example 128] was run?
A: The IC50 was 16 µM.

Q: Cn1cc(C(=O)NCC2CCCCN2C(=O)OC(C)(C)C)c2cc[nH]c2c1=O (centres unmarked) [Example 132] was tested. Which IC50 (BRD4(BD1)) did it give?
A: Its IC50 is 13 µM.

Q: How did the IC50 (BRD9) turn out when C=CCn1cc(C(=O)N(C)C2CCN(c3nccc(C(F)(F)F)n3)CC2)c2cc[nH]c2c1=O [Example 159, 6-allyl-N-methyl-7-oxo-N-[1-[4-(trioromethyl)pyrimidin-2-yl]-4-piperidyl]-1H-pyrrolo[2,3-c]pyridine-4-carboxamide] was run?
A: The IC50 was 4.3 µM.

Q: C=CCn1cc(C(=O)N(C)C2CCN(c3ccncn3)CC2)c2cc[nH]c2c1=O [Example 161, 6-allyl-N-methyl-7-oxo-N-(1-pyrimidin-4-yl-4-piperidyl)-1H-pyrrolo[2,3-c]pyridine-4-carboxamide] was tested. Which IC50 (BRD9) did it give?
A: Its IC50 is 2.9 µM.

Q: CC(C)c1cccc(N2CCC(N(C)C(=O)c3cn(C)c(=O)c4[nH]ccc34)CC2)c1 [Example 179, N-[1-(3-isopropylphenyl)-4-piperidyl]-N,6-dimethyl-7-oxo-1H-pyrrolo[2,3-c]pyridine-4-carboxamide] was tested. Which IC50 (BRD4(BD1)) did it give?
A: The IC50 was 2.1 µM.

Q: CC(C)N1CCC(CN(C)C(=O)c2cn(C)c(=O)c3[nH]ccc23)CC1 [Example 190] was tested. Which IC50 (BRD9) did it give?
A: Its IC50 is 15 µM.

Q: For CN(CC1CCN(Cc2ccccc2Cl)CC1)C(=O)c1cn(C)c(=O)c2[nH]ccc12 [Example 198], which IC50 (BRD4(BD1)) is on record?
A: The IC50 was 1.1 µM.

Q: For CN(C(=O)c1cn(C)c(=O)c2[nH]ccc12)C1CCN(Cc2ccccc2C#N)CC1 [Example 215], which IC50 (BRD4(BD1)) is on record?
A: The IC50 was 3.8 µM.

Q: How did the IC50 (BRD9) turn out when CC(C)CCN1CCC(N(C)C(=O)c2cn(C)c(=O)c3[nH]ccc23)CC1 [Example 217] was run?
A: Its IC50 is 4.7 µM.

Q: With COc1cccc(CN2CCC(N(C)C(=O)c3cn(C)c(=O)c4[nH]ccc34)CC2)c1 [Example 222] as the molecule, how does the IC50 (BRD4(BD1)) read?
A: Its IC50 is 16 µM.

Q: Which IC50 (BRD9) does the source give for CCCCn1cc(C(=O)NCC2CCN(C)CC2)c2cc[nH]c2c1=O [Example 248] here?
A: Its IC50 is 3.3 µM.

Q: How did the IC50 (BRD4(BD1)) turn out when C[C@@H](NC(=O)c1cn(C)c(=O)c2[nH]ccc12)c1ccccc1 [Example 256, (R)-6-methyl-7-oxo-N-(1-phenylethyl)-6,7-dihydro-1Hpyrrolo[2,3-c]pyridine-4-carboxamide] was run?
A: Its IC50 is 3.8 µM.

Q: Cn1cc(C(=O)NCc2ccccc2)c2cc[nH]c2c1=O [Example 257] was tested. Which IC50 (BRD9) did it give?
A: The IC50 was 0.18 µM.

Q: For Cn1cc(C(=O)NCCc2ccccc2)c2cc[nH]c2c1=O [Example 258], which IC50 (BRD4(BD1)) is on record?
A: The IC50 was 0.8 µM.

Q: With CCCCn1cc(C(=O)NCc2ccccc2)c2cc[nH]c2c1=O [Example 259] as the molecule, how does the IC50 (BRD9) read?
A: Its IC50 is 0.6 µM.

Q: How did the IC50 (BRD9) turn out when C/C=C/Cn1cc(C(=O)NCc2ccccc2)c2cc[nH]c2c1=O [Example 260] was run?
A: The IC50 was 0.18 µM.

Q: For COc1ccc(CNC(=O)c2cn(C)c(=O)c3[nH]ccc23)cc1 [Example 261], which IC50 (BRD4(BD1)) is on record?
A: Its IC50 is 2.7 µM.

Q: How did the IC50 (BRD4(BD1)) turn out when Cn1cc(C(=O)NCc2cccs2)c2cc[nH]c2c1=O [Example 262] was run?
A: Its IC50 is 3.3 µM.

Q: With Cn1cc(C(=O)NCc2ccc(F)cc2)c2cc[nH]c2c1=O [Example 263] as the molecule, how does the IC50 (BRD9) read?
A: The IC50 was 0.48 µM.

Q: How did the IC50 (BRD9) turn out when C[C@H](NC(=O)c1cn(C)c(=O)c2[nH]ccc12)c1ccccc1 [Example 264] was run?
A: The IC50 was 0.44 µM.

Q: With Cn1cc(C(=O)NC2CCCCc3ccccc32)c2cc[nH]c2c1=O (centres unmarked) [Example 265, 6-methyl-7-oxo-N-(6,7,8,9-tetrahydro-5Hbenzo[7]annulen-5-yl)-6,7-dihydro-1H-pyrrolo[2,3-c]pyridine-4-carboxamide] as the molecule, how does the IC50 (BRD4(BD1)) read?
A: The IC50 was 5.3 µM.
